In article PMC8648042, “IMB-XMA0038, a new inhibitor targeting aspartate-semialdehyde dehydrogenase of Mycobacterium tuberculosis” (Emerging Microbes & Infections, 2021):

Target: T1, Aspartate-semialdehyde dehydrogenase (MtASADH) (Mycobacterium tuberculosis, UniProt P9WNX5)
T1 construct: gene asd
Experiment: SPR with MtASADH immobilized on CM5 chip; also IC50 […] in LysC-coupled NADPH enzyme assay
Format: binding

T1 sequence (P9WNX5 whole entry, looked up): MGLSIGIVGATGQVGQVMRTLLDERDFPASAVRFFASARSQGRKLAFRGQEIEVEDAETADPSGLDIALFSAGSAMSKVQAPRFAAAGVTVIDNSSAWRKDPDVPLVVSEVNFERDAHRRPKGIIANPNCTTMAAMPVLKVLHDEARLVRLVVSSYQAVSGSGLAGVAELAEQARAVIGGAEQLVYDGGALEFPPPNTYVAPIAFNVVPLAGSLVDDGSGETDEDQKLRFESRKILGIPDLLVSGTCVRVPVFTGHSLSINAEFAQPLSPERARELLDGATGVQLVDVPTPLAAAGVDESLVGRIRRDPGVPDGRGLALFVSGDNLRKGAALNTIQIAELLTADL

Structure (SMILES): O=C(Nc1nnc(C2CCCO2)o1)c1ccc([N+](=O)[O-])o1 (stereo not shown) [IMB-XMA0038, 5-nitro-N-(5-(tetrahydrofuran-2-yl)-1,3,4-oxadiazol-2-yl)furan-2-carboxamide]
- Kd: 365 µM
